From ChEMBL document CHEMBL2321731, “Structure-Based Design of Irreversible Human KAT II Inhibitors: Discovery of New Potency-Enhancing Interactions” (ACS Med Chem Lett, 2013)
Activity calls are given as the source filed them. No cut-off for these calls is given here.

Tests used:
[1] = system: Kynurenine/alpha-aminoadipate aminotransferase, mitochondrial (Homo sapiens), Q8N5Z0 [K240S,F241G]; assay: Binding affinity to C-terminal hexa histidine tagged full length human KAT2 K240S/F241G mutant harboring C-terminal thrombin cleavage site at 1 mM after 2 hrs by X-ray crystallography in presence of 2 mM PLP
Chain of Kynurenine/alpha-aminoadipate aminotransferase, mitochondrial (Homo sapiens), Q8N5Z0 [K240S,F241G] (Q8N5Z0 whole entry K240S/F241G): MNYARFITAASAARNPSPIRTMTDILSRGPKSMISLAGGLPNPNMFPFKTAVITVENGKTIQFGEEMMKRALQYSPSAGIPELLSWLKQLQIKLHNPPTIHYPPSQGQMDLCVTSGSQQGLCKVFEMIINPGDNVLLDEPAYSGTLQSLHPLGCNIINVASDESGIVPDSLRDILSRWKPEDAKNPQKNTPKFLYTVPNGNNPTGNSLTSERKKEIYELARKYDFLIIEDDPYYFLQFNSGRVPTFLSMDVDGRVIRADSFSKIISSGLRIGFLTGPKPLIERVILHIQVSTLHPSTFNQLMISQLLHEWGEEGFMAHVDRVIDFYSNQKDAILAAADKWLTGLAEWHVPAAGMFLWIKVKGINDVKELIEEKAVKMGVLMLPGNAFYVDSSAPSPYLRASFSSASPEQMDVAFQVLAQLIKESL

Rattus norvegicus = assay: Decrease in extracellular KYNA level in Sprague-Dawley rat prefrontal cortex at 10 mg/kg, sc measured for 4 hrs by microdialysis method; assay type: functional, organism-based; design: dose 10 mg/kg
[2] = target: Kynurenine/alpha-aminoadipate aminotransferase, mitochondrial (Rattus norvegicus) (UniProt Q64602); assay: Ratio of Kinact to Ki for rat KAT2 using L-kynurenine as substrate by SpectraMax plate reader analysis
Chain of Kynurenine/alpha-aminoadipate aminotransferase, mitochondrial (Rattus norvegicus) (Q64602 30-425 limits assumed): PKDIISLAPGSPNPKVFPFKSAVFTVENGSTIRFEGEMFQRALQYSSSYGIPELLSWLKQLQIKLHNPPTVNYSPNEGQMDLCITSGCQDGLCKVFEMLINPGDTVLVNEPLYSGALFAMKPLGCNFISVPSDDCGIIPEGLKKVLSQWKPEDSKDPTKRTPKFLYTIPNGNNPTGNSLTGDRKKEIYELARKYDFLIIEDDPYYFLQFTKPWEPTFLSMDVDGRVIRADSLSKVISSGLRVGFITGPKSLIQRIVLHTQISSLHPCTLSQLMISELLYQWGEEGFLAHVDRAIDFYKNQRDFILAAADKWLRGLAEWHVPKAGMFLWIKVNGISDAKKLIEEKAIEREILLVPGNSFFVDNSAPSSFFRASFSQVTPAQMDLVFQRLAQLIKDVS

[3] = Unbound fraction in Sprague-Dawley rat brain at 10 mg/kg, sc by equilibrium dialysis method; assay type: ADME, organism-based; design: dose 10 mg/kg, route subcutaneous
Brain [4] = assay: Ratio of hydroxamate fAUC to compound fAUC in Sprague-Dawley rat brain at 10 mg/kg, sc by equilibrium dialysis method; assay type: ADME, organism-based; design: dose 10 mg/kg, route subcutaneous; details: in vivo
Brain [5] = assay: fAUC in Sprague-Dawley rat brain at 10 mg/kg, sc by equilibrium dialysis method; assay type: ADME, organism-based; design: dose 10 mg/kg, route subcutaneous; details: in vivo
[6] = target: Kynurenine--oxoglutarate transaminase 3 (Homo sapiens, UniProt Q6YP21); assay: Inhibition of human KAT3 using L-kynurenine as substrate measured after 24 hrs by SpectraMax plate reader analysis
Chain of Kynurenine--oxoglutarate transaminase 3 (Q6YP21 whole entry): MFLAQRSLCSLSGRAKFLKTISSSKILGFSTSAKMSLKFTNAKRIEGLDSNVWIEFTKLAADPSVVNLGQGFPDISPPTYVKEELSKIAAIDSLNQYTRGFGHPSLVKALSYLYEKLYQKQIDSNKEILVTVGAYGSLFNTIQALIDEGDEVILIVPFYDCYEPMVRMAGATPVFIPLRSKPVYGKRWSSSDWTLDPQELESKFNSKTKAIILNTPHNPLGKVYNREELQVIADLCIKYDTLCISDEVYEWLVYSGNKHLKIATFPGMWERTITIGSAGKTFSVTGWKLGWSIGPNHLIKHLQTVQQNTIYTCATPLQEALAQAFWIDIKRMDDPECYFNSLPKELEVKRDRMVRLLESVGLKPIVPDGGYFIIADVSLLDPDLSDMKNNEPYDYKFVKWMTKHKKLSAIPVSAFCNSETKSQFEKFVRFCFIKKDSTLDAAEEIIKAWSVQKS

Brain [7] = assay: AUC in Sprague-Dawley rat brain at 10 mg/kg, sc by LC-MS/MS analysis; assay type: ADME, organism-based; design: dose 10 mg/kg, route subcutaneous; details: in vivo
[8] = target: T1, Kynurenine/alpha-aminoadipate aminotransferase, mitochondrial (Homo sapiens, UniProt Q8N5Z0); assay: Ratio of Kinact to Ki for human KAT2 using L-kynurenine as substrate by SpectraMax plate reader analysis
Target sequence in this assay (Q8N5Z0 30-425 limits assumed): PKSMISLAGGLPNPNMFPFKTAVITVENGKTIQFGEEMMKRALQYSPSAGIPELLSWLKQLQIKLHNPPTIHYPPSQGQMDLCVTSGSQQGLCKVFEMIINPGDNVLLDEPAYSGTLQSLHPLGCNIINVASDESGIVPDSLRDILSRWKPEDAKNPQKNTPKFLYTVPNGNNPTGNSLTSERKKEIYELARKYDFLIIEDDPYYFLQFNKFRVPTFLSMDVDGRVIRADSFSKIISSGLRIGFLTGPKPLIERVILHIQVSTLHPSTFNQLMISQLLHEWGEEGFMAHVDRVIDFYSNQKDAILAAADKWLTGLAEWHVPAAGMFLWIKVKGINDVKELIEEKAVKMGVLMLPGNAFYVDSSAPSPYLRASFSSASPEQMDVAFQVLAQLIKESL

[9] = target: T2, Kynurenine--oxoglutarate transaminase 1 (Homo sapiens, UniProt Q16773); assay: Inhibition of human KAT1 using L-kynurenine as substrate measured after 16 hrs by SpectraMax plate reader analysis
T2 sequence (Q16773 whole entry): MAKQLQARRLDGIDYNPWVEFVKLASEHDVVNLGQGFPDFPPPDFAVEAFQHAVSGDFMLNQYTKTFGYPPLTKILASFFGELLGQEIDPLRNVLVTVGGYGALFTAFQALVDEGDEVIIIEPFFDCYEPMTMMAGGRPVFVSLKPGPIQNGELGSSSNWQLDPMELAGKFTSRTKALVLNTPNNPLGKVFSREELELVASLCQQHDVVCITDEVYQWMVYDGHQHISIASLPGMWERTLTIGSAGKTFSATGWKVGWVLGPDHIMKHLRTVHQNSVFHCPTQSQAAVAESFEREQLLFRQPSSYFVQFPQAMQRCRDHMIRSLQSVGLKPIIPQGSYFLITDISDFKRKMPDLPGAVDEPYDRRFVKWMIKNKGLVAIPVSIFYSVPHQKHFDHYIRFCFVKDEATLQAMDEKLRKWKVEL

[10] = target: T1, Kynurenine/alpha-aminoadipate aminotransferase, mitochondrial; assay: Irreversible inhibition of human KAT2 using L-kynurenine as substrate measured every 5 mins over 16 hrs by SpectraMax plate reader analysis
[11] = target: T1, Kynurenine/alpha-aminoadipate aminotransferase, mitochondrial; assay: Inhibition of human KAT2 using L-kynurenine as substrate measured after 15-20 hrs by SpectraMax plate reader analysis
Target sequence in this assay (Q8N5Z0 whole entry): as the sequence (Q8N5Z0 whole entry K240S/F241G) above, with S240K, G241F counted along it

Activity [1] | Ratio [2] | fraction unbound [3] | Ratio (Brain [4]) | fAUC (Brain [5]) | IC50 [6] | AUC (Brain [7]) | Ratio [8] | IC50 [9] | Ki [10] | Kinact [10] | IC50 [11] | Structure (SMILES) | inhibition (Rattus norvegicus)
Active | 9070 | 0.0099 | 9 | 65 ng·h/g | 1230 nM | 6602 ng·h/g | 26800 | 2040 nM | 7.1 nM | 0.0108 min⁻¹ | 23 nM | N[C@H]1Cc2cc(Oc3ccccc3)ccc2N(O)C1=O | Active
Active | 573 | 0.393 | – | 584 ng·h/g | 9040 nM | 1486 ng·h/g | 18500 | 30400 nM | 14.2 nM | 0.0156 min⁻¹ | – | N[C@H]1Cc2ccccc2N(O)C1=O | Active
Active | 1840 | – | – | – | 6400 nM | – | 31700 | 15300 nM | 7.7 nM | 0.0137 min⁻¹ | – | COc1ccc2c(c1)N(O)C(=O)[C@@H](N)C2 | –
